One test relates to miR-206. Nature of the test: qPCR of exosomal miR-206 from dissociated tibialis anterior muscles. To be noted: TSA-treated mdx muscle compared to untreated control. The test is classed as in vivo, mdx mice. As to the method:
Exosomes were purified from tibialis anterior gently dissociated in serum-free DMEM (24 h). Cell debris and organelles were eliminated by centrifugation at 2,000 g for 20 min and exosomes were isolated using TEIR.
For microRNA validation, Total exosomal RNA was extracted with Total Exosome RNA Protein Isolation Kit (#4478545, Invitrogen by Thermo Fisher Scientific) and was retro-transcribed using the Qiagen reverse transcription kit (miScript II RT Kit, #218161, Qiagen) and pre-amplified using (miScript PreAMP PCR Kit, #331451, Qiagen).
All the conditions are provided in the manufacturer protocol.
Of note, transgenic miR-206 upregulation has been exploited as tool for the treatment of DMD and other muscular disorders (Liu et al., 2012; Williams et al., 2009; Fry et al., 2017). […] The same pattern could be observed in mdx mice, in which an abundant miR-206 signal was detected in the interstitium of tibialis anterior muscles, overlapping with the immunofluorescence staining of the FAP's marker Sca-1 (FIG. 3H). […] We performed a quantitative assessment of exosomal miR-206, by isolating whole tibialis anterior (TA) muscles from TSA-treated mdx muscle or untreated control mdx mice, followed by gentle dissociation and exosome isolation.
(In general: In qPCR the cycle at which signal appears reflects the starting amount.)

The next test deals with mdx mice. The settings on record: young vs old mdx mice; Mozzetta et al. 2013, Saccone et al. 2014; cited from earlier work.
The subject of a further test is Notch3. The test can be described thus: Notch3 transcripts in MuSCs isolated from treated mdx mice. The test is classed as in vivo. The settings on record: MuSCs isolated from mdx mice treated with TSA. As for the experimental part: (§1) Animals were used at the specified age and treated for the indicated periods with daily intra peritoneal injections of Trichostatin A, TSA (0.6 mg/kg/day; #T8552, Sigma), dissolved in phospate-saline solution or in phospate-saline alone as vehicle control (CTR). Muscle injury was performed by intramuscular injection in Tibliais Anterior (TA) of Cardiotoxin—CTX− (10 μM, 10 mg/mL) (#L8102, Lotaxan Valence, France, http://www.latoxan.com), 3 days before mice sacrifice.
For RNA-sequencing sample preparation, MuSCs and FAPs were freshly isolated by FACS from 6 C57BI6 mdx male mice 8-weeks old treated or not with TSA for 15 days. RNA was collected using Trizol) reagent (#T9424, Sigma). About 100 ng/μL of total RNA was sent in duplicate to IGA (Istituto di Genomica Applicata, Udine) for RNA sequencing using Illumina TruSeq Stranded Total RNA kit Ribo-Zero GOLD on Illumina Hiseq2500 platform.
To investigate this hypothesis, we evaluated the effect of FAP-derived exosomes from HDACi-treated or control-treated mdx mice on MuSCs within single fibres isolated from WT mice. Freshly isolated single muscle fibres from tibialis anterior, extensor digitorum longus, gastrocnemius and soleus of C57BL6J mice were incubated with FAP-derived exosomes or whole conditioned media, and their effect on MuSCs was evaluated by monitoring the expression of Pax7, MyoD and DNA synthesis (EdU incorporation). […]

The next test has as its system CD63. Nature of the test: In situ immunofluorescence for CD63 on muscle sections. The test is classed as in vivo, mdx mice. As for the experimental part:
as §1
For immunofluorescence analysis, cryo-sections and cells were fixed in 4% PFA for 10 min and permeabilized with 100% cold acetone (#32201, Sigma) for 6 min at −20° C. or 100% cold Methanol (#32213, Sigma) for 6 min at −20° or with 0.25% Triton for 15 min at RT. Muscle sections were blocked for 1 h with a solution containing 4% BSA (#A7030, Sigma) in PBS. […] Sections were incubated with DAPI in PBS for 5 minutes for nuclear staining, washed in PBS, and mounted with glycerol 3:1 in PBS. […]

Data on 1 compound can be found in patent US20210268030A1, “FIBROADIPOGENIC PROGENITOR-DERIVED EXOSOMES FOR REGENERATION OF DYSTROPHIC MUSCLES” (EXOFIX S.R.L., priority 2018, published 2021).

Turning to `CC(/C=C/C(=O)NO)=C\[C@@H](C)C(=O)c1ccc(N(C)C)cc1` [TSA, Trichostatin A], the “increase of miR-206” value with miR-206 is ~7 fold. The regeneration entry in the test on mdx mice was “promotes regeneration in young, but not old”. In addition, in the test on Notch3, the Notch3 transcripts result was “reduced”. The “CD63 signal in the interstitium of muscles” value with CD63 (1 year-old mdx mice) is “could not increase”. For the same compound, the CD63-positive interstitial signal entry in the test with CD63 (mdx young mice (1.5-month), compared to young mdx CTR) is on record as “significant increase”.
